Experimental data taken from ChEMBL document CHEMBL5442334, “ASAP - In vitro safety pharmacology profile” (2024).

Key:
[1] = target: T1, Endothelin-1 receptor (Homo sapiens) (UniProt P25101); assay: SafetyScreen: ETA Human Endothelin GPCR Binding Agonist Radioligand LeadHunter Assay, catalogue number: 54; settings: Test compound concentration 10.0 uM
T1 sequence (whole entry): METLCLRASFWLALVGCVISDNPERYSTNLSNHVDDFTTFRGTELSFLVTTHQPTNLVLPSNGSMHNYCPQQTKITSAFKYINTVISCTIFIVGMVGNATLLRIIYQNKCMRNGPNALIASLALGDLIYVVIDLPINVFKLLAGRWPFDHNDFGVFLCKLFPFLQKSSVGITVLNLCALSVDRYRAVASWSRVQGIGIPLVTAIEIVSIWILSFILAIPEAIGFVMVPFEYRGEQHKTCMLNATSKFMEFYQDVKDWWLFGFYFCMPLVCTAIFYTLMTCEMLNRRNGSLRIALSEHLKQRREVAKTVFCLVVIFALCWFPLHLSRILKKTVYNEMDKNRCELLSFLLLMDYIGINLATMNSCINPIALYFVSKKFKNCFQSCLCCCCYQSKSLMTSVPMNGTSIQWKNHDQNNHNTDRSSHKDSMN

[2] = target: T2, Muscarinic acetylcholine receptor M2 (Homo sapiens) (UniProt P08172); assay: SafetyScreen: M2 Human Acetylcholine (Muscarinic) GPCR Binding Antagonist Radioligand LeadHunter Assay, catalogue number: 93; settings: Test compound concentration 10.0 uM
T2 sequence (whole entry): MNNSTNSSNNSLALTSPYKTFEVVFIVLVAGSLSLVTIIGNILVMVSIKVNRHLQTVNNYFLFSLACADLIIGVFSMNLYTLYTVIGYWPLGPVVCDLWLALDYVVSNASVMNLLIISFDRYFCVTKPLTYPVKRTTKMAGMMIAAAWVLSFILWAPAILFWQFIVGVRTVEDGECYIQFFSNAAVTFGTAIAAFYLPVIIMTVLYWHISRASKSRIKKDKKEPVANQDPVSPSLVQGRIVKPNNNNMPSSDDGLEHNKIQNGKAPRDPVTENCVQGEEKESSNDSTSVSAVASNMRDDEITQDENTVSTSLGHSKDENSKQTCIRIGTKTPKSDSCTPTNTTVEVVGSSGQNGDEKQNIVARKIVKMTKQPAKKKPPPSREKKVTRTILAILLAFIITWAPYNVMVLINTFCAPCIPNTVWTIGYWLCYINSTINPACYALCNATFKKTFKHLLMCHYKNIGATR

[3] = target: Muscarinic acetylcholine receptor M3 (Homo sapiens) (UniProt P20309); assay: SafetyScreen: M3 Human Acetylcholine (Muscarinic) GPCR Binding Antagonist Radioligand LeadHunter Assay, catalogue number: 95; settings: Test compound concentration 10.0 uM
Chain of Muscarinic acetylcholine receptor M3 (Homo sapiens) (P20309 whole entry, looked up): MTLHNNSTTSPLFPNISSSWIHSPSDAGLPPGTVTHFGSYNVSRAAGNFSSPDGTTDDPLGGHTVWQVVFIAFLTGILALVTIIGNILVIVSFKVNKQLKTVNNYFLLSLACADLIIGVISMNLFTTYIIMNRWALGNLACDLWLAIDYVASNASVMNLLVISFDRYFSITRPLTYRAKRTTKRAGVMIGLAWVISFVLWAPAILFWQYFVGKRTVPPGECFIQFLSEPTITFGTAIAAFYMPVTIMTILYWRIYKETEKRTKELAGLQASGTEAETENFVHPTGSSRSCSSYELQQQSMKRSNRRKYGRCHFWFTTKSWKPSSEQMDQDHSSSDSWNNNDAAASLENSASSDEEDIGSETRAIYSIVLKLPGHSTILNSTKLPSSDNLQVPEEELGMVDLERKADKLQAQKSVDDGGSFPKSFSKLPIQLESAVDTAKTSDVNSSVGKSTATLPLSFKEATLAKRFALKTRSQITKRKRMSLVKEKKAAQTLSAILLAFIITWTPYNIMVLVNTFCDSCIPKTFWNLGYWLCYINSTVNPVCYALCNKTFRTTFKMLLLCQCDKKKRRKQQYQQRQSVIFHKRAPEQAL

[4] = target: T3, Androgen receptor (Homo sapiens) (UniProt P10275); assay: SafetyScreen: AR Human Androgen NHR Binding Agonist Radioligand LeadHunter Assay, catalogue number: 933; settings: Test compound concentration 10.0 uM
T3 sequence (whole entry): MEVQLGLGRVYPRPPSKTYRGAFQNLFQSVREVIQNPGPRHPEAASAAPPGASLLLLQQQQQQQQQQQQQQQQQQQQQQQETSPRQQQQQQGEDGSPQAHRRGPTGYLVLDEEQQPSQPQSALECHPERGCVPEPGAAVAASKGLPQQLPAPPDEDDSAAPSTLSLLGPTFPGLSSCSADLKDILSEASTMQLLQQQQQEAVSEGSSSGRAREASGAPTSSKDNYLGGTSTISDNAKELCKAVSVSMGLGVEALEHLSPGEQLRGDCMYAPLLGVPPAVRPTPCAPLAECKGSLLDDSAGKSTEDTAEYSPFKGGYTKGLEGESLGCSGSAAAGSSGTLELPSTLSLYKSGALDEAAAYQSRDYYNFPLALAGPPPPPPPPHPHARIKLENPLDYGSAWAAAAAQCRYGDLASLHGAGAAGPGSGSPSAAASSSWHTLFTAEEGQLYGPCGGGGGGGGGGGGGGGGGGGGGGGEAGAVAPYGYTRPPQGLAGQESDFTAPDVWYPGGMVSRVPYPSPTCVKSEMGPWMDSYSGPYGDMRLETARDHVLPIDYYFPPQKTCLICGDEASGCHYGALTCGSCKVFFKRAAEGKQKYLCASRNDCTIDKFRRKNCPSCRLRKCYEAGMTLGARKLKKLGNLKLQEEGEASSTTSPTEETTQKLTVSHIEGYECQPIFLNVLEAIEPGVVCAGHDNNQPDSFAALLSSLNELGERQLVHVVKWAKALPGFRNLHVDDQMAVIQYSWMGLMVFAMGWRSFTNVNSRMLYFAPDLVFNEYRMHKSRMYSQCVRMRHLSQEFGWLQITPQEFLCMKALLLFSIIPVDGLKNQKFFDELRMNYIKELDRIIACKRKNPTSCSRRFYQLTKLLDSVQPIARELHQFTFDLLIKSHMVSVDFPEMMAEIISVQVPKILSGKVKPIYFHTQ

[5] = target: 5-hydroxytryptamine receptor 1B (Homo sapiens) (UniProt P28222); assay: SafetyScreen: 5-HT1B Human Serotonin GPCR Binding Antagonist Radioligand LeadHunter Assay, catalogue number: 4376; settings: Test compound concentration 10.0 uM
Chain of 5-hydroxytryptamine receptor 1B (Homo sapiens) (P28222 whole entry): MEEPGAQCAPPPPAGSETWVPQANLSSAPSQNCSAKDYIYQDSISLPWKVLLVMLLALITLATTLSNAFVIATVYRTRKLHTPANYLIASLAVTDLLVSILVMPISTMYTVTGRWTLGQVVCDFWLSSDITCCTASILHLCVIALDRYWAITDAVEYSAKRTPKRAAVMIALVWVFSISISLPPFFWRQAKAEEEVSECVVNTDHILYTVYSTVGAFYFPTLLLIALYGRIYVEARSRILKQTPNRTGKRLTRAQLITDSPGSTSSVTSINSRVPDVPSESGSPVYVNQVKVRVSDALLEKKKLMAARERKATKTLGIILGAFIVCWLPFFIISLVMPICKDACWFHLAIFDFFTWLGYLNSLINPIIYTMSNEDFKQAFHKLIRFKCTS

[6] = target: Histamine H1 receptor (Homo sapiens) (UniProt P35367); assay: SafetyScreen: H1 Human Histamine GPCR Binding Antagonist Radioligand LeadHunter Assay, catalogue number: 870; settings: Test compound concentration 10.0 uM
Chain of Histamine H1 receptor (Homo sapiens) (P35367 whole entry): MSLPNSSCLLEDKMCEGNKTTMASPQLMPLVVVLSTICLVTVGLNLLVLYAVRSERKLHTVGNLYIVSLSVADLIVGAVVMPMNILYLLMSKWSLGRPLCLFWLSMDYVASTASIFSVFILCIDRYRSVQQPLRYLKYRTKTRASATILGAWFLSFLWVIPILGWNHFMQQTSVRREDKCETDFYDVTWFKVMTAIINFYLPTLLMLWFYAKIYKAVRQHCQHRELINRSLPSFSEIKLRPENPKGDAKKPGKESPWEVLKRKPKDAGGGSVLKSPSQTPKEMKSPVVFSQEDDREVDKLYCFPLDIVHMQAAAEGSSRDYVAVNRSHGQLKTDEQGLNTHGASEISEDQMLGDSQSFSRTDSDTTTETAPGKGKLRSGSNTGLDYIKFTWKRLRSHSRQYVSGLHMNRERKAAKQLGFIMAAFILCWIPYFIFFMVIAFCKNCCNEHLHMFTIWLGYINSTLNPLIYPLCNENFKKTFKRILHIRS

[7] = target: T4, 5-hydroxytryptamine receptor 3A (Homo sapiens) (UniProt P46098); assay: SafetyScreen: 5-HT3 Human Serotonin Ion Channel Binding Antagonist Radioligand LeadHunter Assay, catalogue number: 411; settings: Test compound concentration 10.0 uM
T4 sequence (whole entry): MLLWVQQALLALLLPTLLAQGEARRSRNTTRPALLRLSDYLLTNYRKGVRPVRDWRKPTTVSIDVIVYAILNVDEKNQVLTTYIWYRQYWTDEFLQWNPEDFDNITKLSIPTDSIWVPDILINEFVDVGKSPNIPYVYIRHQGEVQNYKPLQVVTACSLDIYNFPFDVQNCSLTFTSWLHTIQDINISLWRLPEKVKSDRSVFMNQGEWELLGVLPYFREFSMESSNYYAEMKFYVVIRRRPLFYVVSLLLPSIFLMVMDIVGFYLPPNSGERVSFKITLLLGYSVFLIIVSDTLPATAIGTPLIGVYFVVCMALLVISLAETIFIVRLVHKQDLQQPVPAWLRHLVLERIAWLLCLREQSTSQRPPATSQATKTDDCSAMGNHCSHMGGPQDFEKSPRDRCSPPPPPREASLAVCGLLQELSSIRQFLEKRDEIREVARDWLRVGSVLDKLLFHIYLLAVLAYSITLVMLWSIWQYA

[8] = target: Acetylcholinesterase (Homo sapiens) (UniProt P22303); assay: SafetyScreen: Acetylcholinesterase Human Enzymatic LeadHunter Assay, catalogue number: 363; assay type: functional; settings: Test compound concentration 10.0 uM
Chain of Acetylcholinesterase (Homo sapiens) (P22303 whole entry): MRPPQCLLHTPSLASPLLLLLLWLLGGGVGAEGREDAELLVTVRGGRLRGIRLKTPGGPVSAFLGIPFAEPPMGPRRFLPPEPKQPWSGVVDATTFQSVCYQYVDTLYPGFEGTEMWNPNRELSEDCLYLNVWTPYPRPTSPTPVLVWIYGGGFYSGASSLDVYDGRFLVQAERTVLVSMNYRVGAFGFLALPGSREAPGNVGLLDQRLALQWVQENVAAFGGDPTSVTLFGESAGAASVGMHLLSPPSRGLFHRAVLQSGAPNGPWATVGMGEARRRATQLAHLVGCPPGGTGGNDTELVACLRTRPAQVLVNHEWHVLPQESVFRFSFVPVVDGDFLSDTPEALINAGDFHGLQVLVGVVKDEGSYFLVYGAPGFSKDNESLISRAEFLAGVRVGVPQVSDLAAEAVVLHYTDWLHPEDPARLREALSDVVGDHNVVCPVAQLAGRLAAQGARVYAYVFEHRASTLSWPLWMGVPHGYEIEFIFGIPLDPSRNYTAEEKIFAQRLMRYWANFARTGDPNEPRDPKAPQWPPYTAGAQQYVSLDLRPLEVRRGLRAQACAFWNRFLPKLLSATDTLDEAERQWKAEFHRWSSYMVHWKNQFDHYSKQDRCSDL

Rattus norvegicus = species on record: Rattus norvegicus; assay: SafetyScreen: KV (Non-Selective) Rat Potassium Ion Channel [125I] alpha-Dendrotoxin Binding LeadHunter Assay, catalogue number: 166; settings: Test compound concentration 10.0 uM
[9] = target: Voltage-gated L-type calcium channel (Rattus norvegicus, UniProt P22002+Q02485+P27732); assay: SafetyScreen: Cav1.2 (L-type) Rat Calcium Ion Channel Binding (Dihydropyridine Site) LeadHunter Assay, catalogue number: 161; assay type: protein assay; settings: at 10 µM, test compound concentration 10 uM
[10] = target: Adenosine receptor A2a (Homo sapiens) (UniProt P29274); assay: SafetyScreen: A2A Human Adenosine GPCR Binding Agonist Radioligand LeadHunter Assay, catalogue number: 4; settings: Test compound concentration 10.0 uM
Chain of Adenosine receptor A2a (Homo sapiens) (P29274 whole entry): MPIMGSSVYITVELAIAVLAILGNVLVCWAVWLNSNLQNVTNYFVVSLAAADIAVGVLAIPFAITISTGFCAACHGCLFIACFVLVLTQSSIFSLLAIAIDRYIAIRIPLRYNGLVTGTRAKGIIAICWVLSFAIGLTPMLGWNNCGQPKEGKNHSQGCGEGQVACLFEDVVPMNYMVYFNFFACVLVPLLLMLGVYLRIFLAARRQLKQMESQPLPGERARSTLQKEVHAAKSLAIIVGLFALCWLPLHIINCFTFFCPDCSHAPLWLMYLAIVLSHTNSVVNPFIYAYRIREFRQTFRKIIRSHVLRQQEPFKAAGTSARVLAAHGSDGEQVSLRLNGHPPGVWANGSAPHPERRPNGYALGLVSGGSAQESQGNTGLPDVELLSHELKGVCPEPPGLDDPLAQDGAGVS

SMILES	inhibition [1] [%]	inhibition [2] [%]	inhibition [3] [%]	inhibition [4] [%]	inhibition [5] [%]	inhibition [6] [%]	inhibition [7] [%]	inhibition [8] [%]	inhibition (Rattus norvegicus) [%]	Inhibition [9] [%]	inhibition [10] [%]
C[C@H](C(=O)O)[C@@H](NC(=O)c1ncnc2[nH]ccc12)c1ccc(Br)cc1	-2	-4	-9	12	1	-8	2	12	0	-12	
CC(C)[C@H](Nc1ncnc2[nH]c(-c3cnn(C)c3C#N)cc12)c1ccc2c(n1)OCCO2	42	18		-3		5	6	15	0	9	84
CC(C)[C@@H](Nc1ncnc2[nH]c(-c3cnn(C)c3C#N)cc12)c1ccc2c(n1)OCCO2	5	15	1	12	4	0	4	22	2	10	69
Cc1nn(C)cc1-c1cc2c(N[C@H](c3ccc4c(c3)S(=O)(=O)CCC4)C(C)C)ncnc2[nH]1	-4	5	-9	6	15	0	6	13	1	12	13
Cn1ncc(-c2cc3c(N[C@@H](c4ccc5c(n4)OCCO5)C(C)(C)C)ncnc3[nH]2)c1C#N	9	25	-8	5	18	7	3	14	5	21	52
COc1ccc([C@H](Cc2nnn[nH]2)NC(=O)c2ncnc3[nH]ccc23)cc1	2			-2		-4	6	11	-1	-22	
CNC(=O)Cn1cc(-c2cc3c(N[C@@H](c4ccc5c(c4)S(=O)(=O)CCC5)C(C)C)ncnc3[nH]2)cn1	-4	7	-9	0	0	-5	5	13	-2	-1	23
CC(C)[C@H](Nc1ncnc2[nH]ccc12)c1ccc2c(c1)S(=O)(=O)CCC2	-1	34	5	0	0	-3	8	12	-10	12	11
CC(C)[C@@H](Nc1ncnc2[nH]c(C(=O)N[C@@H]3CCN(C)C3)cc12)c1ccc2c(c1)S(=O)(=O)CCC2	-6	52	-9	-5	17	2	2	28	2	-6	-4
CNCc1cc(-c2cc3c(N[C@@H](c4ccc5c(c4)S(=O)(=O)CCC5)C(C)C)ncnc3[nH]2)co1	-1	52	5	10	45	-3	0	10	1	-3	21
